Patent US20040102514A1 (priority 2003, published 2004)
Entries after “also recorded” stand apart in the source; their conditions may differ.

What was measured:
Sprague-Dawley rats [1] = settings: rat, in vivo
Sprague-Dawley rats [2] = settings: rat, in vivo; remark: listed apart in the source
weanling pigs = settings: pig, in vivo

## 7α, 15-benzylidene-3α,8αdiacetoxy-9α,12β-dimethyltrichothecan-12α-ol [EN139508]
Sprague-Dawley rats [1]
  duration of induced pattern: approximately 30 minutes
  induction of fed pattern of gut motility: induced a dose-dependent fed pattern of gut motility
  onset time of action (duodenal site D1): approximately 60 seconds
  pattern of gut motor activity induced: induced a dose-dependent fed pattern of gut motility
  time of onset of action after administration: approximately 60 seconds

## C[C@@H]1C[C@H]2O[C@@H]3[C@H](O)C[C@](C)([C@]24COC(c2ccccc2)O[C@@H]4C1=O)[C@@]3(C)O (stereo partly drawn) [EN139522, 7α,15-benzylidene-9α, 12β-dimethyl-3α, 12α-dihydroxytricocethcan-8-one]
Sprague-Dawley rats [1]
  duration of action (fed pattern): 35 min
  induction of fed pattern of gut motility: induce a classic fed pattern
  time of onset of action after administration: 20 s

## 7α,15-benzylidene-9α,12β-dimethyltrichothecan-3α,8α,12α-triol [EN139502]
Sprague-Dawley rats [1]
  delay before intensified fasting pattern: approximately 5 min
  effect on fasting pattern of gut motility: intensify or enhance the fasting pattern
  induction of fed pattern of gut motility: did not induce the fed pattern gut motility

## CC1=C[C@H]2O[C@@H]3[C@H](O)C[C@](C)([C@@]2(CO)[C@H](O)C1=O)[C@]31CO1 [DON, 3α,7α, 15-trihydroxy-12,13-epoxy-trichothec-9-en-8-one]
Sprague-Dawley rats [1]
  induction of fed pattern of gut motility: induced the fed pattern of gut motility
Sprague-Dawley rats [2]
  food consumption: immediate and sustained reduction; also recorded: concentration-dependant reduction; also recorded: decrease
  weight gain: immediate and sustained reduction; also recorded: concentration-dependant reduction; also recorded: decrease
Weanling pigs
  emesis: some emesis occurred
  food consumption in the Day 1 AM meal following the treat: decreased food consumption
  persistence of effect on food consumption at Day 1 PM and following meals: wore off by the next meal
